Patent US20260132128A1, “COMPOUND FOR RECOVERING P53 MUTATION FUNCTION AND USE THEREOF” (SHENZHEN ZHONGGE BIOLOGICAL TECHNOLOGY CO., LTD., priority 2022, published 2026)
Read-outs that look alike come from different tables or passages of the source.

Columns and labels:
[1] = tested on: BxPC-3 cells; test: BxPC-3 cell proliferation test (CTG); assay type: cell-based; settings: Homo sapiens, 144 h, 6 days
Procedure: To detect the inhibitory effects of the aforementioned compounds on the proliferation ability of BxPC-3 cells, 125 BxPC-3 cells (ATCC®CRL-1687) were seeded into a 384-well plate (Corning 3765), 35 μL per well, and placed in a constant temperature incubator at 37° C. and 5% CO2 overnight. Then, 40 nL of the compound was added to the 384-well plate using an Echo 655 Liquid Handler, with a maximum final concentration of 10 μM, 1:3 serial dilution, and in a total of 10 doses. Incubation was performed at 37° C., 5% CO2 for 6 days. The plate was taken out from the incubator and equilibrated at room temperature for 10 minutes. 20 μL of CTG (Promage G7572) was added to each well of the plate according to the platemap. The plate was centrifuged at 1000 rpm for 1 minute. The lysis of cells was induced by mixing on a shaker for 2 minutes. The plate was centrifuged at 1000 rpm for 1 minute. Incubation was performed at room temperature for 10 minutes to stabilize luminescence signals. Luminescence values were recorded by Envision (PerkinElmer 2105-0020). GraphPad 9.0 was used to fit the inhibition rate and compound concentration into a nonlinear regression curve (dose response-variable slope) to calculate GI50, inhibition rate={1−(A−B)/(C−B)}*100%, A=signal value of compound; B=average signal of blank control; C=average signal of negative control (wherein the negative control was 0.1% DMSO).

[2] = molecular target: T1, p53 Y220C (Homo sapiens, UniProt P04637, P309S/R273H/Y220C); test: DNA binding test (HTRF): binding of P53Y220C protein to DNA; assay type: biochemical; settings: HTRF, activation of p53 Y220C (aa 94-312) binding to biotin DNA
T1 construct: a truncated mutant containing only amino acids 94-312 of p53; made in house; host or cells: E. coli

[3] = molecular target: T2, CYP 3A4 (Homo sapiens, UniProt P08684); test: CYP 3A4 time-dependent inhibition test; assay type: in vitro ADME; settings: midazolam substrate
T2 construct: purchased BioIVT X008067
Procedure: CYP 3A4 and the test compound or mifepristone of various concentrations were added to a 96-deep well plate for pre-incubation. The plate was placed in a water bath and preheated at 37° C. for 5 min. For the 0 min pre-incubation samples, midazolam substrate was added to the incubation plate, then 10 mM NADPH solution was added, and the reaction was carried out in a 37° C. water bath for 5 min; for the 30 min pre-incubation samples with NADPH, 10 mM NADPH solution was added to the incubation plate, pre-incubated in a 37° C. water bath for 30 min, and then midazolam substrate was added and reacted in a 37° C. water bath for 5 min; for the 30 min pre-incubation samples without NADPH, the incubation plate was pre-incubated in a 37° C. water bath for 30 min, then midazolam substrate was added, 10 mM NADPH solution was added, and the reaction was carried out in a 37° C. water bath for 5 min. After the reaction was completed, the quenching solution (500 nM tolbutamide (Bide Pharmaceuticals, Cat. No. BD154332) and 10 nM terfenadine (Sigma, Cat. No. T96532)) were added to quench the reaction, and the plate was centrifuged at 3,220 g for 40 min at 4° C. The supernatant was pipetted into a new plate, the supernatant was diluted with pure water and mixed well, and the sample was analyzed using UPLC-MS/MS.

[4] = 0 min pre-incubation, read-out: IC50 (μM) 0 min
[5] = 30 min pre-incubation with NADPH, read-out: IC50 (μM) 30 min, with NADPH
[6] = 30 min pre-incubation without NADPH, read-out: IC50 (μM) 30 min, without NADPH

T1 sequence (P04637 94-312, stated change not applied): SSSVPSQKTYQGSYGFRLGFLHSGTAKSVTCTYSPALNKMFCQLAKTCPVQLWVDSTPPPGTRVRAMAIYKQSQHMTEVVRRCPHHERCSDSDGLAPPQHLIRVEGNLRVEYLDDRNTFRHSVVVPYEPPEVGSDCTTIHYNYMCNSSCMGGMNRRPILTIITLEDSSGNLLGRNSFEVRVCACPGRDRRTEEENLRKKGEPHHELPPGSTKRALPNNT
T2 sequence (P08684 whole entry): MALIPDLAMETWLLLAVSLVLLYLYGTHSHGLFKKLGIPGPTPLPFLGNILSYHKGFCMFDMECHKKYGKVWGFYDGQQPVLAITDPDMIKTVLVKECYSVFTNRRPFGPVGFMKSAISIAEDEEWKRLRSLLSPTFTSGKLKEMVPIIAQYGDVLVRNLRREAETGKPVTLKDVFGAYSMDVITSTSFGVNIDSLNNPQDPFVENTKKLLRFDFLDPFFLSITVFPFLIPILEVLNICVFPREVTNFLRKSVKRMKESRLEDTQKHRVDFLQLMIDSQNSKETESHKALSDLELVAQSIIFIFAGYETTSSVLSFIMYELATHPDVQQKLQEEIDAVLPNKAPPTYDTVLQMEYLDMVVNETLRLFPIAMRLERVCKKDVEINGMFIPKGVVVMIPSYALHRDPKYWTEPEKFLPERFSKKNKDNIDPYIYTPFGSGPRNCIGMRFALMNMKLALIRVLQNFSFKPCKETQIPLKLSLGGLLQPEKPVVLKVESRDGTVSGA

GI50 [1] | EC50 [2] | IC50 [3, 4] | IC50 [3, 5] | IC50 [3, 6] | SMILES
< 1 µM | – | – | – | – | CNC(=O)c1ccc(NCC#Cc2nc3c(NC4CC[C@@H](N5CC6(COC6)C5)C[C@@H]4F)cccn3c2CC(F)(F)F)c(OCF)c1 (stereo partly drawn) [Compound 58]
< 1 µM | < 0.1 µM | 8.05 µM | 1.89 µM | 8.36 µM | CNC(=O)c1ccc(NCC#Cc2nc3c(N[C@@H]4CCN(C)C[C@@H]4F)cccn3c2CC(F)(F)F)c(OC)c1 [Compound 5]
– | < 0.1 µM | 4.55 µM | 1.56 µM | 5.91 µM | [2H]C([2H])([2H])NC(=O)c1ccc(NCC#Cc2cc3c(NC4CCC(N5CC6(COC6)C5)CC4F)cccn3c2CC(F)(F)F)c(OC([2H])([2H])[2H])c1 (single isomer, unassigned) [Compound 74d]
– | < 0.1 µM | – | – | – | COc1cc(C(=O)NC2CC2)ccc1NCC#Cc1nc2c(NC3CC[C@@H](N4CC5(COC5)C4)C[C@@H]3F)cccn2c1CC(F)(F)F (stereo partly drawn) [Compound 54]
< 1 µM | < 0.1 µM | 7.48 µM | 3.01 µM | 7.46 µM | CNC(=O)c1ccc(NCC#Cc2nc3c(NC4CCC(N5CC6(COC6)C5)CC4F)cccn3c2CC(F)(F)F)c(OC)c1 (single isomer, unassigned) [Compound 35-6i]
< 1 µM | < 0.1 µM | – | – | – | [2H]C([2H])([2H])NC(=O)c1ccc(NCC#Cc2nc3c(NC4CC[C@@H](N5CC6(COC6)C5)C[C@@H]4F)cccn3c2CC(F)(F)F)c(OC([2H])([2H])[2H])c1 (stereo partly drawn) [Compound 64]
